BindingDB's records for patent US20260034094 (Kojin Therapeutics, 2026)

Biological target: T1, Glutamate--cysteine ligase catalytic subunit (Homo sapiens, UniProt P48506)
T1 sequence (P48506 whole entry): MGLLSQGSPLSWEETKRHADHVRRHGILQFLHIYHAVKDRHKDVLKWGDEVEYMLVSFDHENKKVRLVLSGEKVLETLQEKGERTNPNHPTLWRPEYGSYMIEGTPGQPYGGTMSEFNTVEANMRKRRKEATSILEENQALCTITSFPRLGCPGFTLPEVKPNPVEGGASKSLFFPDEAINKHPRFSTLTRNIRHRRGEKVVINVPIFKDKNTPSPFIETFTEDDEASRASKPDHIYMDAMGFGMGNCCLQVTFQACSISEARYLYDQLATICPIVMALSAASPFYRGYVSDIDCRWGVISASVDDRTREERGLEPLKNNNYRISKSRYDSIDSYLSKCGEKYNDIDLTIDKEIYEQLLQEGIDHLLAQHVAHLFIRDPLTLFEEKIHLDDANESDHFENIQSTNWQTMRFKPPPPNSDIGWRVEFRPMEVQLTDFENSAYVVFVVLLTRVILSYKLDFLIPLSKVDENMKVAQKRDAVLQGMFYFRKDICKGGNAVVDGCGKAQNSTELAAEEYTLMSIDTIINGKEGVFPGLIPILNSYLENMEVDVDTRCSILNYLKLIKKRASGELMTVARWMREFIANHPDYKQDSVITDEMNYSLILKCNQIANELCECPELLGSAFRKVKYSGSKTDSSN
Experiment: GCL Enzyme Profiling Assay
Method: Compound in pure DMSO was stamped in assay plates (Greiner black 384-well) or appropriate containers using a D300e digital dispenser (TECAN) and the final DMSO concentration was normalized to 1%. A 5 mL, or in the present case, 5 μL mixture of human recombinant GCL (final concentration: 5 nM) and ATP (final concentration: 0.6 mM) was added and the solution was incubated at room temperature (22° C.) for 1 h. […] The reaction was stopped after 1 h or in the present case, 2 h by addition of 5 mL, or in the present case, 5 μL ADP GLO Reagent (Promega). The resulting solution was incubated for 2 h at room temperature. This was then followed by addition of 5 mL, or in the present case, 5 μL ADP GLO Detection. After incubation at room temperature for 30 min, the plates were read on a plate reader (PheraStar) using a luminescence protocol to quantify the GCL enzyme activity from each reaction solution.

IC50 [µM]	Structure (SMILES)
< 20	N=S(=O)(CCC(c1ccc(-c2ccc(Cl)s2)cc1)C(F)(F)F)CC[C@H](N)C(=O)O (some centres undefined) [US20260034094, Compound 256]
< 20	N=S(=O)(CCC(c1ccc(-c2cnc3[nH]ncc3c2)cc1)C(F)(F)F)CC[C@H](N)C(=O)O (some centres undefined) [US20260034094, Compound 254]
< 20	Cc1ccc(-c2ccc(C(CCS(=N)(=O)CC[C@H](N)C(=O)O)C(F)(F)F)cc2)c(Cl)c1 (some centres undefined) [US20260034094, Compound 279]
< 20	N=S(=O)(CCC(c1ccc(-c2ccc(F)cc2Cl)cc1)C(F)(F)F)CC[C@H](N)C(=O)O (some centres undefined) [US20260034094, Compound 271]
< 20	N=S(=O)(CC[C@H](N)C(=O)O)CCC(O)(c1ccc(C2CCCCC2)cn1)C(F)(F)F (some centres undefined) [US20260034094, Compound 476]
< 20	N=S(=O)(CCC(c1ccc(-c2ccc(Cl)cc2Cl)cn1)C(F)(F)F)CC[C@H](N)C(=O)O (some centres undefined) [US20260034094, Compound 317]
< 20	Cc1cc(Cl)ccc1-c1cccc(C(CCS(=N)(=O)CC[C@H](N)C(=O)O)C(F)(F)F)c1 (some centres undefined) [US20260034094, Compound 283]
< 20	CN1CCN(c2ccc(-c3ccc(C(CCS(=N)(=O)CC[C@H](N)C(=O)O)C(F)(F)F)cc3)cn2)CC1 (some centres undefined) [US20260034094, Compound 249]
< 20	N=S(=O)(CCC(c1ccc(-c2ccc(C(N)=O)nc2)cc1)C(F)(F)F)CC[C@H](N)C(=O)O (some centres undefined) [US20260034094, Compound 245]
< 20	Cc1ccccc1-c1ccc(C(O)(CCS(=N)(=O)CC[C@H](N)C(=O)O)C(F)(F)F)nc1 (some centres undefined) [US20260034094, Compound 471]
< 20	N=S(=O)(CCC(c1ccc(-c2ccoc2)cc1)C(F)(F)F)CC[C@H](N)C(=O)O (some centres undefined) [US20260034094, Compound 258]
< 20	N=S(=O)(CC[C@H](N)C(=O)O)CCC(O)(c1cc(-c2ccc(Cl)cc2Cl)cs1)C(F)(F)F (some centres undefined) [US20260034094, Compound 337]
< 20	N=S(=O)(CCC(c1ccc(C2CC2)cc1)C(F)(F)F)CC[C@H](N)C(=O)O (some centres undefined) [US20260034094, Compound 225]
< 20	Cc1ccc(-c2cccc(C(CCS(=N)(=O)CC[C@H](N)C(=O)O)C(F)(F)F)c2)cc1F (some centres undefined) [US20260034094, Compound 290]
< 20	N=S(=O)(CC[C@H](N)C(=O)O)CCC(O)(c1ccn(-c2ccc(Cl)cc2Cl)n1)C(F)(F)F (some centres undefined) [US20260034094, Compound 336]
< 20	CC(C)c1ccccc1-c1ccc(C(CCS(=N)(=O)CC[C@H](N)C(=O)O)C(F)(F)F)cc1 (some centres undefined) [US20260034094, Compound 266]

IC50 [µM]	Structure (SMILES)
< 20	N=S(=O)(CCC(c1cccc(C#Cc2ccccc2)c1)C(F)(F)F)CC[C@H](N)C(=O)O (some centres undefined) [US20260034094, Compound 273]
< 20	N=S(=O)(CC[C@H](N)C(=O)O)CCC(O)(c1ccc(-c2ccco2)cn1)C(F)(F)F (some centres undefined) [US20260034094, Compound 481]
< 20	Cc1ccc(-c2ccc(C(CCS(=N)(=O)CC[C@H](N)C(=O)O)C(F)(F)F)cc2)c(C)c1 (some centres undefined) [US20260034094, Compound 280]
< 20	Cc1cccc(-c2cccc(C(CCS(=N)(=O)CC[C@H](N)C(=O)O)C(F)(F)F)c2)c1 (some centres undefined) [US20260034094, Compound 286]
< 20	N=S(=O)(CCC(c1ccccc1O)C(F)(F)F)CC[C@H](N)C(=O)O (some centres undefined) [US20260034094, Compound 397]
> 2000	CC(C)(C)CCS(=N)(=O)CC[C@H](N)C(=O)Nc1nccs1 (some centres undefined) [US20260034094, Compound 121]
< 20	N=S(=O)(CCC(c1cccc(-c2ccc(Cl)cc2Cl)c1)C(F)(F)F)CC[C@H](N)C(=O)O (some centres undefined) [US20260034094, Compound 288]
< 20	N=S(=O)(CC[C@H](N)C(=O)O)CCC(O)(c1cnc(-c2ccc(Cl)cc2Cl)cn1)C(F)(F)F (some centres undefined) [US20260034094, Compound 367]
< 20	N=S(=O)(CC[C@H](N)C(=O)O)CCC(O)([C@H]1CC[C@H](c2ccc(Cl)cc2Cl)CC1)C(F)(F)F (some centres undefined) [US20260034094, Compound 340]
< 20	C#Cc1ccc(C(CCS(=N)(=O)CC[C@H](N)C(=O)O)C(F)(F)F)cc1 (some centres undefined) [US20260034094, Compound 272]
< 20	N=S(=O)(CC[C@H](N)C(=O)O)CCC1(c2ccc(Oc3ccc(Cl)cc3Cl)cc2)CCC1 (some centres undefined) [US20260034094, Compound 403]
< 20	N=S(=O)(CCC(c1ccc(-c2ccccc2C(F)(F)F)cc1)C(F)(F)F)CC[C@H](N)C(=O)O (some centres undefined) [US20260034094, Compound 267]
< 20	N=S(=O)(CCc1cccc(Cl)c1F)CC[C@H](N)C(=O)O (some centres undefined) [US20260034094, Compound 28]
< 20	N=S(=O)(CCC(c1ccc(-c2ccc(C(F)F)cc2)cc1)C(F)(F)F)CC[C@H](N)C(=O)O (some centres undefined) [US20260034094, Compound 231]
< 20	N=S(=O)(CCC(c1ccc(-c2cccnc2)cc1)C(F)(F)F)CC[C@H](N)C(=O)O (some centres undefined) [US20260034094, Compound 243]
< 20	N=S(=O)(CCC(c1ccc(-c2cc[nH]n2)cc1)C(F)(F)F)CC[C@H](N)C(=O)O (some centres undefined) [US20260034094, Compound 228]

Continued, compound first:

Structure (SMILES)	IC50 [µM]
Cc1ccc(-c2ccc(C(CCS(=N)(=O)CC[C@H](N)C(=O)O)C(F)(F)F)cc2)cn1 (some centres undefined) [US20260034094, Compound 246]	< 20
N=S(=O)(CCC(c1ccc(-c2ccc(F)cc2O)cc1)C(F)(F)F)CC[C@H](N)C(=O)O (some centres undefined) [US20260034094, Compound 281]	< 20
N=S(=O)(CCC(c1ccc(C2=CCNCC2)cc1)C(F)(F)F)CC[C@H](N)C(=O)O (some centres undefined) [US20260034094, Compound 259]	< 20
Cc1cc(F)ccc1-c1ccc(C(CCS(=N)(=O)CC[C@H](N)C(=O)O)C(F)(F)F)cc1 (some centres undefined) [US20260034094, Compound 278]	< 20
C=C(c1ccc(C(CCS(=N)(=O)CC[C@H](N)C(=O)O)C(F)(F)F)cc1)C(F)(F)F (some centres undefined) [US20260034094, Compound 260]	< 20
C=C(C)c1ccc(C(CCS(=N)(=O)CC[C@H](N)C(=O)O)C(F)(F)F)cc1 (some centres undefined) [US20260034094, Compound 262]	< 20
Cc1ccc(-c2cccc(C(CCS(=N)(=O)CC[C@H](N)C(=O)O)C(F)(F)F)c2)cc1 (some centres undefined) [US20260034094, Compound 285]	< 20
N=S(=O)(CC[C@H](N)C(=O)O)CCC(O)(c1cnc(-c2ccc(Cl)cc2Cl)nc1)C(F)(F)F (some centres undefined) [US20260034094, Compound 366]	< 20
CNC(=O)c1cccc(-c2ccc(C(CCS(=N)(=O)CC[C@H](N)C(=O)O)C(F)(F)F)cc2)c1 (some centres undefined) [US20260034094, Compound 230]	< 20
N=S(=O)(CC[C@H](N)C(=O)O)CCC(O)(c1ncc(-c2ccc(Cl)cc2Cl)cn1)C(F)(F)F (some centres undefined) [US20260034094, Compound 462]	< 20
Cc1ccccc1-c1ccc(C(O)(CCS(=N)(=O)CC[C@H](N)C(=O)O)C(F)(F)F)cc1 (some centres undefined) [US20260034094, Compound 429]	< 20
Cc1cc(Cl)ccc1-c1ccc(C(CCS(=N)(=O)CC[C@H](N)C(=O)O)C(F)(F)F)cc1 (some centres undefined) [US20260034094, Compound 275]	< 20
N=S(=O)(CC[C@H](N)C(=O)O)CCC(O)(c1ncc(-c2ccccc2)cn1)C(F)(F)F (some centres undefined) [US20260034094, Compound 467]	< 20
CC(C)(O)c1cccc(-c2ccc(C(CCS(=N)(=O)CC[C@H](N)C(=O)O)C(F)(F)F)cc2)c1 (some centres undefined) [US20260034094, Compound 241]	< 20
N=S(=O)(CCC(c1ccc(-c2ccc(Cl)cc2)cc1)C(F)(F)F)CC[C@H](N)C(=O)O (some centres undefined) [US20260034094, Compound 277]	< 20
N[C@@H](CCS(=O)(=O)CCC(O)(c1ncc(-c2ccc(Cl)cc2Cl)cn1)C(F)(F)F)C(=O)O (some centres undefined) [US20260034094, Compound 470]	< 20
N=S(=O)(CCC(c1ccc(-c2cn[nH]c2)cc1)C(F)(F)F)CC[C@H](N)C(=O)O (some centres undefined) [US20260034094, Compound 227]	< 20
N=S(=O)(CC[C@H](N)C(=O)O)CCC(O)(c1ccc(OC2CCCCC2)cc1)C(F)(F)F (some centres undefined) [US20260034094, Compound 339]	< 20
N=S(=O)(CC[C@H](N)C(=O)O)CCC(O)(c1ccc(Oc2ccc(Cl)cc2Cl)cc1)C(F)(F)F (some centres undefined) [US20260034094, Compound 342]	< 20
N=S(=O)(CCC(c1ccc(-c2ccc(Br)cc2)cc1)C(F)(F)F)CC[C@H](N)C(=O)O (some centres undefined) [US20260034094, Compound 226]	< 20
N=S(=O)(CCC(c1ccc(-c2ccc(O)cc2Cl)cc1)C(F)(F)F)CC[C@H](N)C(=O)O (some centres undefined) [US20260034094, Compound 270]	< 20
N=S(=O)(CCC(c1ccc(-c2cnc(N)nc2)cc1)C(F)(F)F)CC[C@H](N)C(=O)O (some centres undefined) [US20260034094, Compound 251]	< 20
